The source of these data is patent US8877684B2, “Pesticidal composition comprising a synthetic compound useful as nodulation agent of leguminous plants and an insecticide compound” (Bayer CropScience AG, priority 2006, dated 2014).

SMILES strings stand for the structures.

Experiment [1] concerns Myzus persicae. As to the kind of experiment: Myzus persicae test: cabbage leaves infested with green peach aphid dipped into the preparation. Type of experiment: in vivo. The note with it: foliar, 96 h, leaf dip, after 4 d. The procedure: (§1) The expected efficacy of a given combination of two compounds is calculated as follows (see Colby, S. R., “Calculating Synergistic and antagonistic Responses of Herbicide Combinations”, Weeds 15, pp. 20-22, 1967):
(§2) • X is the efficacy expressed in % mortality of the untreated control for test compound A at a concentration of m ppm respectively m g/ha; • Y is the efficacy expressed in % mortality of the untreated control for test compound B at a concentration of n ppm respectively n g/ha; • E is the efficacy expressed in % mortality of the untreated control using the mixture of A and B at m and n ppm respectively m and n g/ha; then is
(§3) If the observed insecticidal efficacy of the combination is higher than the one calculated as “E”, then the combination of the two compounds is more than additive, i.e., there is a synergistic effect.
To produce a suitable preparation of active compound, 1 part by weight of active compound is mixed with the stated amount of solvent and emulsifier, and the concentrate is diluted with emulsifier-containing water to the desired concentration. Cabbage leaves (Brassica oleracea) which are heavily infested by the green peach aphid (Myzus persicae) are treated by being dipped into the preparation of the active compound of the desired concentration.
(§4) After the specified period of time, the mortality in % is determined. […]

Experiment [2] relates to Phaedon cochleariae. As to the kind of experiment: Phaedon cochleariae test: dipped cabbage leaves infested with mustard beetle larvae. Type of experiment: in vivo. Conditions: foliar, 96 h, leaf dip, after 4 d. On the procedure:
as §1, §2, §3
To produce a suitable preparation of active compound, 1 part by weight of active compound is mixed with the stated amount of solvent and emulsifier, and the concentrate is diluted with emulsifier-containing water to the desired concentration. Cabbage leaves (Brassica oleracea) are treated by being dipped into the preparation of the active compound of the desired concentration and are infested with larvae of the mustard beetle (Phaedon cochleariae) as long as the leaves are still moist.
as §4

One may read the mortality as the percentage killed. With `O=[N+]([O-])NC1=NCCN1Cc1ccc(Cl)nc1` [Imidacloprid], in experiment [1], the mortality at 0.16 ppm came to 10%. Further, the mortality at 20 ppm in experiment [2] was determined as 70%.
